Assay results published in patent US20220160751A1, “METHODS OF TREATMENT OF DISEASES AND DISORDERS ASSOCIATED WITH INCREASED TET LEVEL, INCREASED H19 LEVEL, INCREASED LEVEL OF TGF SIGNALING, OR ANY COMBINATION THEREOF” (YALE UNIVERSITY, priority 2019, published 2022).

Assays:
[1] = tested on: TGFB1, TSP1 and TGFBR2 promoters; assay: ChIP-qPCR and QMSP in LX-2 cells; format: cell-based, human; conditions: 48 h, vs siCon
Method: The assays were carried out as previously described in (Zhou J et al., 2015, Nat Commun 6:10221; Zhong T et al., 2016, Oncogene 36:2345-2354) with minor modifications. Briefly, gDNA was extracted from LX-2 cells in 24-well plates using Quick-gDNA MicroPrep (Zymo Research Corporation, Irvine, Calif.; D3021). For bisulfite treatment using EZ DNA Methylation-Gold Kit (Zymo, D5006), 90-500 ng of gDNA was used per column and 20-40 μl of elution buffer was used to elute DNA from each column. qPCR was performed in a 15 μl reaction containing 5 μl of eluted DNA using iQSYBRGreen (Bio-Rad, Hercules, Calif.; 1708880) in a Bio-Rad iCycler. PCR was conducted by initial denaturation at 95° C. for 5 min, followed by 40 cycles of 30 sec at 95° C., 30 sec at 60° C., and 30 sec at 72° C. Two sets of PCR primers were designed: one for unmethylated and one for methylated DNA sequences. The PCR primers for methylated DNA were used at a final concentration of 0.6 μM in each PCR reaction. The relative levels of methylated versus unmethylated DNA sequences are presented.
These experiments were performed as previously described (Zhou J et al., 2015, Nat Commun 6:10221) with minor modifications. Briefly, experiments were performed in a 10-cm plate scale using Chromatin Prep Module Kit (Thermo, catalog number 26158) according to the manufacturer's instructions. Agarose beads were used to pre-bind overnight with antibodies against TET3 (Millipore Sigma, ABE290), H3K4me3 (Cell signaling, C42D8) and H3K27me3 (Cell signaling, C36B11). Preimmune IgG was used as a negative control. LX-2 cells were cross-linked with 1% formaldehyde at RT for 10 min and the reaction was stopped by 1× glycine. ChIPs were carried out overnight at 4° C. Primers (Table 1) for the specific promoter regions of TGFB1, TSP1, and TGFBR2 were used to amplify input and ChIP-purified DNA. The relative enrichments of the indicated DNA regions were calculated using the Percent Input Method according to the manufacturer's instructions and were normalized to % input. Data are presented after normalization against background IgG signals.

[2] = tested on: UtLM and ht-UtLM leiomyoma cells; assay: RT-qPCR and Western blot of gene expression in leiomyoma cells; format: cell-based, human
Source text: Antibodies for TET3 (GeneTex, GTX121453; used at a dilution of 1/500), TGFBR2 (Abcam, ab184948; used at a dilution of 1/1000), TSP1 (Abcam, ab85762; used at a dilution of 1/500), MED12 (Novus Biological, NB100-2357; used at a dilution of 1/500), HMGA2 (Proteintech, 20795-1-AP; used at a dilution of 1/500), GRAF1 (Cell Signaling, 8802; used at a dilution of 1/500), SPARC (Cell Signaling, 8725; used at a dilution of 1/500), COL3A1 (LS-Bio, LS-C159386; used at a dilution of 1/1000), COL4A1 (LS-Bio, LS-C100552; used at a dilution of 1/500), COL5A2 (Origene, TA809611; used at a dilution of 1/500) and GAPDH (Abcam, ab128915; used at a dilution of 1/10000) were purchased. Human H19 siRNA (siH19) and control siRNA (siCon) were previously described (Ghazal S et al., 2015, EMBO Mol Med 7:996-1003). siTET3 (Ambion, 4392420/s47239), estradiol ([…], Sigma), and progesterone ([…], Sigma) were purchased. Estradiol and progesterone were dissolved in DMSO and used at a final concentration of 10^-8M. ht-UtLM cells tested negative for mycoplasma contamination were maintained in MEM (Sigma, #M3024) supplemented with 20% fetal bovine serum, 1×MEM Vitamin Solution (Invitrogen #11120-052), 1×MEM Amino Acids Solution (Invitrogen, #11130-051), and 1×MEM Non-Essential Amino Acids (Invitrogen #11140-050). Primary UtLM-1 and UtLM-2 cells were maintained in DMEM (Gibco, #10567014) supplemented with 20% fetal bovine serum, and 1% penicillin/streptomycin, 1% amphotericin B. All cells were transfected in a 24-well plate scale. To prepare siRNA transfection solution for each well, 10 pmol (5 pmol for primary cells) of siCon, siH19, or siTET3 were mixed with 25 μl of OPTI-MEM by gentle pipetting. In parallel, 1 μl of Lipofectamine 3000 was mixed with 25 μl of OPTI-MEM. Following 5 min of incubation at room temperature, the two were mixed by gentle inverting and incubated for 10 min at room temperature to allow siRNA/lipid complexes to form. At the end of incubation, the 50 μl of transfection solution was used to re-suspend the cell pellet (3×10^4 cells). After incubation at room temperature for 10 min, growth medium was added at a ratio of 1:9 (1 volume of transfection solution/9 volumes of growth medium), and the cell suspension was transferred to a new culture dish. After overnight incubation in a tissue culture incubator, the medium was replaced with fresh growth medium. For iLet 7 rescue experiments, 10 pmol of siCon/siH19 and 10 pmol of iCon/iLet7 were used for each well of 3×10^4 cells. RNA, genomic DNA, and protein were extracted and analyzed at the indicated time points following transfection.

## siTET3: TET3-specific siRNA (human), Ambion 4392420/s47239 (sense CAGCAACUCCUAGAACUGATT; antisense UCAGUUCUAGGAGUUGCUGGA; chemistry not given here)
[1]
  H3K4me3 association with promoters: significantly decreased H3K4me3
  H3K27me3 association with promoters: increased H3K27me3
  binding of TET3 to TGFB1, TSP1 and TGFBR2 promoters (ChIP-qPCR): significantly reduced
  methylation in the CTRRs of TGFB1, TSP1 and TGFBR2 (QMSP): increase in methylation in the CTRRs
  ratios of H3K4me3/H3K27me3: decreased significantly
[2]; UtLM cells, vs siCon
  protein levels of MED12, TGFBR2, TSP1, GRAF1, SPARC, COL5A2, COL4A1, COL3A1 (Western blot): all decreased
[2]; ht-UtLM cells
  MED12 expression: lack of effects
[2]; primary human leiomyoma cells and ht-UtLM, 48 h, vs siCon
  mRNA expression of TET3, MED12, TGFBR2, TSP1, GRAF1, SPARC, COL3A1, COL4A1 and COL5A2: results similar to those of H19 knockdown were obtained
